Experimental findings from patent US20240384268A1, “Oligonucleotides” (Hudson Institute of Medical Research, priority 2021, published 2024) are described below.

For the data set, the target named is T1, human TLR7 (Homo sapiens, UniProt Q9NYK1).
T1 construct: HA; host or cells: 293XL-hTLR7-HA (HEK293)
T1 sequence (Q9NYK1 27-1049): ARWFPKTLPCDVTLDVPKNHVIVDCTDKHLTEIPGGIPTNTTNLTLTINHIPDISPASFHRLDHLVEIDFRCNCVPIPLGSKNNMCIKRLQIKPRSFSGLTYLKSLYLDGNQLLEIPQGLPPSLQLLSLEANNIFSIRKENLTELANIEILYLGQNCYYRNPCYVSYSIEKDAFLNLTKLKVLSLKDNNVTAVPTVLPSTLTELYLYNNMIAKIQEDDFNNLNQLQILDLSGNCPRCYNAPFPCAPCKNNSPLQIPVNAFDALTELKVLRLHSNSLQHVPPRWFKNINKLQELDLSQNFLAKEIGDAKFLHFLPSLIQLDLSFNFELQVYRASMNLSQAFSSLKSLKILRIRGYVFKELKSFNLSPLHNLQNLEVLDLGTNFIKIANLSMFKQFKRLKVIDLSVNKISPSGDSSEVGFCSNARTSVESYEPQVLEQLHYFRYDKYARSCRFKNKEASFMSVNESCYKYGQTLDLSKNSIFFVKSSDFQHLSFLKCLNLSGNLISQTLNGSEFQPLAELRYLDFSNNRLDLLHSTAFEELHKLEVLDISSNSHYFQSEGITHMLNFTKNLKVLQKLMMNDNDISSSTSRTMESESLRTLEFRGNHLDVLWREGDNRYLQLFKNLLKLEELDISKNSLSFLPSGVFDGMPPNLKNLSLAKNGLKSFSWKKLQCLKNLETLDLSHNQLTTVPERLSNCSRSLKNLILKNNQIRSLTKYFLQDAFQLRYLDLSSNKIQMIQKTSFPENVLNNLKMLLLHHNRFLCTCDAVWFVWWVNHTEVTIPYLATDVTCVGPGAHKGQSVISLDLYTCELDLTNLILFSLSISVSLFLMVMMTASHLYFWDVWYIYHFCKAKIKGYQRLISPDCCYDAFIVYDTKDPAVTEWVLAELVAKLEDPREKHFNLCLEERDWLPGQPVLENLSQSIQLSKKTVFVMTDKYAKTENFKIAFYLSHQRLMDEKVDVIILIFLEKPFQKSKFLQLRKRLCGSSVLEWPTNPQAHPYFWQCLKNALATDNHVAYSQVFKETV
Briefly: HEK-TLR7 NF-κB-luciferase reporter, R848 stimulation. The settings on record: relative to R848 only, given as fraction; for TLR7 100 nM (averaged NF-κB-Luciferase level relative to R848 condition): ASO 100 nM; for TLR7 500 nM (averaged NF-κB-Luciferase level relative to R848 condition): ASO 500 nM. It is filed as cell-based. A general note: Reporter assays use an easily measured gene product as a stand-in for the process of interest.

Turning to “CTTGAAGCATCGTATC (antisense; LNA-modified, pattern not given here) [CTNN2B-3648 LNA KL]”, the “TLR7 100 nM (averaged NF-κB-Luciferase level relative to R848 condition)” value was 0.363 and the “TLR7 500 nM (averaged NF-κB-Luciferase level relative to R848 condition)” value is on record as 0.044.

Regarding “CTTGGCTTCGTGGAGC (antisense; LNA-modified, pattern not given here) [MB21D1-520 LNA V1]”, the “TLR7 100 nM (averaged NF-κB-Luciferase level relative to R848 condition)” value worked out at 0.806 and the “TLR7 500 nM (averaged NF-κB-Luciferase level relative to R848 condition)” value is recorded as 0.098.

In the case of “GAAAGGTTATGCAAGG (antisense; LNA-modified, pattern not given here) [CTNN2B-916 LNA KL]”, the “TLR7 100 nM (averaged NF-κB-Luciferase level relative to R848 condition)” value is 0.166 and the “TLR7 500 nM (averaged NF-κB-Luciferase level relative to R848 condition)” value is 0.101.

As for “GACTATACGCGCAATA (antisense; LNA-modified, pattern not given here) [NC5 LNA PS 3-10-3]”, the “TLR7 100 nM (averaged NF-κB-Luciferase level relative to R848 condition)” value came to 0.282 and the “TLR7 500 nM (averaged NF-κB-Luciferase level relative to R848 condition)” value is 0.098.

For “GAGGTCTTGGCTTCGT (antisense; LNA-modified, pattern not given here) [MB21D1-525 LNA V1]”, the “TLR7 100 nM (averaged NF-κB-Luciferase level relative to R848 condition)” value is on record as 0.793 and the “TLR7 500 nM (averaged NF-κB-Luciferase level relative to R848 condition)” value was 0.067.

Turning to “GATGGCCTCCCATCTC (antisense; LNA-modified, pattern not given here) [HPRT LNA-331 V1]”, the “TLR7 100 nM (averaged NF-κB-Luciferase level relative to R848 condition)” value worked out at 0.558 and the “TLR7 500 nM (averaged NF-κB-Luciferase level relative to R848 condition)” value is on record as 0.119.

As for “GCACACTTCGTACCCA (antisense; LNA-modified, pattern not given here) [CAMSAP1-4915 LNA V1]”, the “TLR7 100 nM (averaged NF-κB-Luciferase level relative to R848 condition)” value amounted to 0.657 and the “TLR7 500 nM (averaged NF-κB-Luciferase level relative to R848 condition)” value came out at 0.221.

In the case of “GCACTTCAGTCTGAGC (antisense; LNA-modified, pattern not given here) [MB21D1-719 LNA KL]”, the “TLR7 100 nM (averaged NF-κB-Luciferase level relative to R848 condition)” value turned out to be 0.713 and the “TLR7 500 nM (averaged NF-κB-Luciferase level relative to R848 condition)” value is given as 0.168.

As for “GGAGGTCTTGGCTTCG (antisense; LNA-modified, pattern not given here) [MB21D1-526 LNA V1]”, the “TLR7 100 nM (averaged NF-κB-Luciferase level relative to R848 condition)” value stood at 0.503 and the “TLR7 500 nM (averaged NF-κB-Luciferase level relative to R848 condition)” value was found to be 0.119.

Turning to “GGCACTTTGCCTCCTT (antisense; LNA-modified, pattern not given here) [EGFR-2859 LNA V1]”, the “TLR7 100 nM (averaged NF-κB-Luciferase level relative to R848 condition)” value was found to be 0.774 and the “TLR7 500 nM (averaged NF-κB-Luciferase level relative to R848 condition)” value was found to be 0.668.

For the sequence “GGCTCGGCTTGCCTAC (antisense; LNA-modified, pattern not given here) [CAMSAP1-5594 LNA V1]”, the “TLR7 100 nM (averaged NF-κB-Luciferase level relative to R848 condition)” value is recorded as 0.569 and the “TLR7 500 nM (averaged NF-κB-Luciferase level relative to R848 condition)” value amounted to 0.186.

As to “GGTCATTACAATAGCT (antisense; LNA-modified, pattern not given here) [HPRT LNA-475 KL]”, the “TLR7 100 nM (averaged NF-κB-Luciferase level relative to R848 condition)” value is given as 0.580 and the “TLR7 500 nM (averaged NF-κB-Luciferase level relative to R848 condition)” value was found to be 0.049.

With “GGTCTTGGCTTCGTGG (antisense; LNA-modified, pattern not given here) [MB21D1-523 LNA V1]”, the “TLR7 100 nM (averaged NF-κB-Luciferase level relative to R848 condition)” value was 0.481 and the “TLR7 500 nM (averaged NF-κB-Luciferase level relative to R848 condition)” value amounted to 0.042.

For the sequence “GTCAAGGGCATATCCT (antisense; LNA-modified, pattern not given here) [HPRT LNA-732 KL]”, the “TLR7 100 nM (averaged NF-κB-Luciferase level relative to R848 condition)” value stood at 0.650 and the “TLR7 500 nM (averaged NF-κB-Luciferase level relative to R848 condition)” value is 0.142.

In the case of “GTCCTTGCACGTGGCT (antisense; LNA-modified, pattern not given here) [EGFR-1015 LNA V1]”, the “TLR7 100 nM (averaged NF-κB-Luciferase level relative to R848 condition)” value is 0.471 and the “TLR7 500 nM (averaged NF-κB-Luciferase level relative to R848 condition)” value is 0.251.

With “GTCTCTGGAGCTTCCT (antisense; LNA-modified, pattern not given here) [CAMSAP1-2456 LNA V1]”, the “TLR7 100 nM (averaged NF-κB-Luciferase level relative to R848 condition)” value is reported as 0.477 and the “TLR7 500 nM (averaged NF-κB-Luciferase level relative to R848 condition)” value was found to be 0.084.

Consider “GTCTTCATCGGCCCTG (antisense; LNA-modified, pattern not given here) [CAMSAP1-2113 LNA V1]”, for which the “TLR7 100 nM (averaged NF-κB-Luciferase level relative to R848 condition)” value is on record as 0.641 and the “TLR7 500 nM (averaged NF-κB-Luciferase level relative to R848 condition)” value stood at 0.119.

On to “GTGATCTTGACATGCT (antisense; LNA-modified, pattern not given here) [EGFR-2790 LNA KL]”, for which the “TLR7 100 nM (averaged NF-κB-Luciferase level relative to R848 condition)” value turned out to be 0.438 and the “TLR7 500 nM (averaged NF-κB-Luciferase level relative to R848 condition)” value is listed as 0.060.

Regarding “GTGATGGCCTCCCATC (antisense; LNA-modified, pattern not given here) [HPRT LNA-333 V1]”, the “TLR7 100 nM (averaged NF-κB-Luciferase level relative to R848 condition)” value came to 0.665 and the “TLR7 500 nM (averaged NF-κB-Luciferase level relative to R848 condition)” value is 0.139.

As to “TACTTTCCGAGGTGTC (antisense; LNA-modified, pattern not given here) [CAMSAP1-1739 LNA KL]”, the “TLR7 100 nM (averaged NF-κB-Luciferase level relative to R848 condition)” value came out at 0.738 and the “TLR7 500 nM (averaged NF-κB-Luciferase level relative to R848 condition)” value was determined as 0.451.

In the case of “TCCACAATCAAGACAT (antisense; LNA-modified, pattern not given here) [HPRT LNA-551 KL]”, the “TLR7 100 nM (averaged NF-κB-Luciferase level relative to R848 condition)” value was 0.863 and the “TLR7 500 nM (averaged NF-κB-Luciferase level relative to R848 condition)” value is 0.533.

On to “TCCATACCCAAGGCAT (antisense; LNA-modified, pattern not given here) [CTNN2B-2446 LNA V1]”, for which the “TLR7 100 nM (averaged NF-κB-Luciferase level relative to R848 condition)” value is on record as 1.056 and the “TLR7 500 nM (averaged NF-κB-Luciferase level relative to R848 condition)” value came to 0.494.

Consider “TCCGCCCAAAGGGAAC (antisense; LNA-modified, pattern not given here) [HPRT LNA-1027 KL]”, for which the “TLR7 100 nM (averaged NF-κB-Luciferase level relative to R848 condition)” value was determined as 0.860 and the “TLR7 500 nM (averaged NF-κB-Luciferase level relative to R848 condition)” value is on record as 0.543.

In the case of “TCCTTGCACGTGGCTT (antisense; LNA-modified, pattern not given here) [EGFR-1014 LNA V1]”, the “TLR7 100 nM (averaged NF-κB-Luciferase level relative to R848 condition)” value is given as 0.812 and the “TLR7 500 nM (averaged NF-κB-Luciferase level relative to R848 condition)” value amounted to 0.482.

Consider “TCGTGGGGTCCTTTTC (antisense; LNA-modified, pattern not given here) [HPRT LNA-660 V1]”, for which the “TLR7 100 nM (averaged NF-κB-Luciferase level relative to R848 condition)” value turned out to be 0.540 and the “TLR7 500 nM (averaged NF-κB-Luciferase level relative to R848 condition)” value stood at 0.318.

In the case of “TCTTCATCGGCCCTGC (antisense; LNA-modified, pattern not given here) [CAMSAP1-2112 LNA V1]”, the “TLR7 100 nM (averaged NF-κB-Luciferase level relative to R848 condition)” value is listed as 0.820 and the “TLR7 500 nM (averaged NF-κB-Luciferase level relative to R848 condition)” value amounted to 0.511.

Regarding “TCTTGGCTTCGTGGAG (antisense; LNA-modified, pattern not given here) [MB21D1-521 LNA V1]”, the “TLR7 100 nM (averaged NF-κB-Luciferase level relative to R848 condition)” value was found to be 1.033 and the “TLR7 500 nM (averaged NF-κB-Luciferase level relative to R848 condition)” value came to 0.288.

In the case of “TGACAAAGATTCACTG (antisense; LNA-modified, pattern not given here) [HPRT LNA-1353 KL]”, the “TLR7 100 nM (averaged NF-κB-Luciferase level relative to R848 condition)” value is 1.040 and the “TLR7 500 nM (averaged NF-κB-Luciferase level relative to R848 condition)” value worked out at 0.430.

With “TGACTGTCTTGAGGGT (antisense; LNA-modified, pattern not given here) [MB21D1-1483 LNA KL]”, the “TLR7 100 nM (averaged NF-κB-Luciferase level relative to R848 condition)” value worked out at 0.802 and the “TLR7 500 nM (averaged NF-κB-Luciferase level relative to R848 condition)” value was 0.150.

For the sequence “TGCTCCTCGGTCTCCC (antisense; LNA-modified, pattern not given here) [CAMSAP1-1850 LNA V1]”, the “TLR7 100 nM (averaged NF-κB-Luciferase level relative to R848 condition)” value is on record as 0.751 and the “TLR7 500 nM (averaged NF-κB-Luciferase level relative to R848 condition)” value is on record as 0.595.

As for “TGGTCCACAACCCCTT (antisense; LNA-modified, pattern not given here) [MB21D1-697 LNA V1]”, the “TLR7 100 nM (averaged NF-κB-Luciferase level relative to R848 condition)” value was 1.008 and the “TLR7 500 nM (averaged NF-κB-Luciferase level relative to R848 condition)” value was determined as 0.545.

On to “TGGTGGCCACCCATCT (antisense; LNA-modified, pattern not given here) [CTNN2B-2479 LNA V1]”, for which the “TLR7 100 nM (averaged NF-κB-Luciferase level relative to R848 condition)” value was found to be 0.957 and the “TLR7 500 nM (averaged NF-κB-Luciferase level relative to R848 condition)” value is given as 0.393.
